# Laboratory results taken from patent publication US12390505B2, “Composition for preventing or treating obesity or diabetes, comprising acanthopanax senticosus extract and garcinia cambogia extract or compound isolated therefrom” (KOREA RESEARCH INSTITUTE OF BIOSCIENCE AND BIOTECHNOLOGY, priority 2020, dated 2025).
# Where two headings read alike, the source gives them in different places.
# What was measured:
# L6 myotube cells [1] = test: Glucose uptake (2-deoxy-D-[14C]-glucose) in muscle cells; type: cell-based, rat
# Procedure: (§1) To differentiate rat myoblast L6 cells into myotubes, it was suspended at a concentration of 1×10^4 cells/ml in MEM medium (Welgene) supplemented with 10% of Fetal Bovine Serum and 1% of antibiotic antimycotic, and then 500 μl each was inoculated into a 24-well plate and cultured to the full for 2 days. […] The differentiated myotube cells were replaced with serum-free medium before the experiment and left for 6 hours. Myotube cells were pretreated with 100 nM porcine-derived insulin and 20 μM cytochalacin B for 15 minutes, and other samples were pretreated for 30 minutes. […] After the reaction, the cells were washed twice with Krebs-Ringer buffer (20 mM Tris-HCl, 2 mM EDTA, and 0.5 mM EGTA, pH 7.4), and the cells were lysed with 0.5N NaOH and mixed with a scintillation cocktail. The intracellular radiation dose of 2-DG was measured using a liquid scintillation counter (Tri-Carb 2900TR liquid scintillation analyzer, Perkin Elmer).
# 3T3-L1 cells [2] = conditions: for Cell Viability: mouse
# Procedure: DMEM medium (Gibco) supplemented with 10% Bovine Calf Serum and 1% Penicillin-streptomycin was used as a growth media (GM) to culture 3T3-L1 cells, which are mouse preadipocytes. The suspension was suspended at a concentration of 2×10^3 cells/ml, and 100 μl each was inoculated into a 96-well plate, and the cells were cultured to full capacity for 3 days. In order to induce fat differentiation, DMEM medium containing 10% FBS was replaced with a differentiation media (DM) supplemented with insulin, dexamethasone and 3-isobutyl-1-methylxanthine (IBMX), and cultured for 2 days. After 2 days, DMEM medium containing 10% FBS containing insulin was added to the existing medium. […] As described in the CCK-8 (Dojindo) kit for counting cells, 10 μl of CCK-8 solution was mixed with 90 μl of medium and added at 100 μl per well. After reacting for at least 30 minutes to 1 hour, absorbance was measured at 450 nm.
# 3T3-L1 cells [3] = test: Triglyceride production, Adipogenesis Colorimetric Assay; type: cell-based, mouse
# Procedure: 3T3-L1 cells, which are preadipocytes of mice, are suspended at a concentration of 2×10^4 cells/ml using Dulbecco's Modified EaDCRT media (DMEM, Gibco) containing 10% of Bovine Calf Serum as a growth media (GM), and then inoculated into 24-well plates at 1 ml each, and then adipocytes were cultured for 3 days to become confluent. In order to induce adipocyte differentiation, DMEM media containing 10% FBS was replaced with differentiation media (DM) supplemented with insulin, dexamethasone and 3-isobutyl-1-methylanthin (IBMX) and cultured for 2 days. After 2 days, DMEM media containing 10% FBS containing insulin was added to the existing medium. […] After differentiation was induced under the same conditions as above, triglyceride (TG) produced was measured using an Adipogenesis Colorimetric Assay (Biovision) kit. According to the protocol provided in the kit, after washing the cells once with PBS, 100 μl of Lipid Extract solution was added to scrape the cells, and the cells were placed at 90° C. for 30 minutes. Thereafter, the supernatant, which had turned cloudy, was left at room temperature until it became transparent, and then 50 μl of the supernatant was obtained and transferred to a 96-well plate. After adding 2 μl of lipase and reacting for 10 minutes, 50 μl of the reaction mixture containing the probe and enzyme mix was added and reacted, and the degree of color development was measured at 570 nm with a microplate meter. The concentration of triglyceride produced in the cells was determined using a standard curve for each concentration according to the triglyceride sample included in the kit.
# L6 myotube cells [4] = test: Isobologram analysis of glucose absorption capacity, chiisanogenin and Ca-HCA; type: cell-based; conditions: Rattus norvegicus; differentiated L6 myotube cells, single compound
# Procedure: as §1
# [5] = Example 12 HFD mice: serum test; type: in vivo, mouse; conditions: serum of HFD mice, oral once daily for 10 weeks; chiisanogenin 50 mg/kg; Garcinia cambogia extract 200 mg/kg; combination 50 + 150 mg/kg; Met 50 mg/kg
# Procedure: The test drug was dispersed in 0.5% Carboxymethyl cellulose (CMC) and administered in a volume of 0.2 ml, and the drug was administered orally by force into the stomach using a metal Zonde for oral administration. Blood was collected by cardiac puncture to conduct a blood biochemical test after the end of the final experiment, and then plasma was separated by centrifugation at 3,000 rpm and 4° C. for 15 minutes within 30 minutes after blood collection, and then stored at −74° C. for blood chemistry and ELISA analysis. The contents of total cholesterol, high-density lipoprotein (HDL), low-density lipoprotein (LDL), triglyceride, FFA, glucose, and LDH, which are indicators of lipid content, were measured using an automated biochemical analyzer (Hitachi-720, Hitachi Medical, Japan). IGF-1 and Creatine were diluted in coating buffer, coated on microwells, and left overnight at 4° C. […] 100 μl of the TMB substrate was dispensed, left in the dark for 30 minutes, treated with 50 μl of the stop solution, and absorbance was measured at a wavelength of 450 nm using an ELISA reader. Results obtained from various experiments are recorded as mean±standard error of mean (SEM), and significance verification is determined using the student's T-test analysis method. […]
# 3T3-L1 cells [6] = test: Fat accumulation, Oil Red O staining; type: cell-based, mouse
# Procedure: 3T3-L1 cells, which are preadipocytes of mice, are suspended at a concentration of 2×10^4 cells/ml using Dulbecco's Modified EaDCRT media (DMEM, Gibco) containing 10% of Bovine Calf Serum as a growth media (GM), and then inoculated into 24-well plates at 1 ml each, and then adipocytes were cultured for 3 days to become confluent. […] In order to measure lipid accumulation after inducing the adipocyte differentiation, it was measured using Oil red 0 staining analysis (Sigma-aldrich). To fix the cells, 1% formaldehyde (based on distilled water) was added and reacted at 4° C. for 1 hour, followed by washing with distilled water, and then stained with 500 μl of filtered Oil Red 0 solution at room temperature for 1 hour. Then, after washing with distilled water, 300 μl of 100% isopropyl alcohol was added to extract intracellular oil red 0, and the degree of color development was measured at 492 nm using a microplate measuring instrument.
# [7] = Example 12 HFD mice: oral glucose tolerance test; type: in vivo, mouse; conditions: oral once daily 10 weeks, 50 mg/kg
# Procedure: After adapting 8-week-old male C57b1/6 J mice to the basic diet (AIN-76A diet) for 2 weeks, and consuming Diet Induced Obesity Diet Formulas (D12451) 60 kcal % HFD diet for 2 weeks from 10 weeks of age, and then the test drug was administered when the average body weight reached 28 g or more. The animal breeding room environment of the mouse was maintained in a constant temperature (25±2° C.), constant humidity (50±5%) and a 12-hour photoperiod (light on 07:00˜19:00) in which the light and shade were controlled in an SPF environment. […] The test drug was dispersed in 0.5% Carboxymethyl cellulose (CMC) and administered in a volume of 0.2 ml, and the drug was administered orally by force into the stomach using a metal Zonde for oral administration.
# […] Blood to be used for blood glucose measurement was collected from the tail vein of a mouse, and blood glucose was measured using a serum analyzer (Accutrend plus GCTL Cobas Roche, Germany).
# Results obtained from various experiments are recorded as mean±standard error of mean (SEM), and significance verification is determined using the student's T-test analysis method. The data were analyzed using one-way ANOVA to determine a statistically significant variance between each group for each final point measured, and statistical significance between each group was determined using the nonparametric Mann-Whitney test and Dunnett's multiple comparison test (IBM SPSS statistics version 19.0 statistic software, Inc, IBM, USA).
# PPAR-gamma mRNA = test: Example 12 HFD mice: adipose tissue PPAR-gamma mRNA analysis; type: in vivo, mouse; conditions: adipose tissue of HFD mice, oral once daily for 10 weeks, chiisanogenin 50 mg/kg, Garcinia cambogia extract 200 mg/kg, combination 50 + 150 mg/kg, Met 50 mg/kg
# Procedure: The test drug was dispersed in 0.5% Carboxymethyl cellulose (CMC) and administered in a volume of 0.2 ml, and the drug was administered orally by force into the stomach using a metal Zonde for oral administration. RNA was extracted from tissues using RNAsolB (Tel-Test) solution, and cDNA and real-time PCR analysis were performed using One-step SYBR Green PCR kit (AB science). From the prepared cDNA, a FAM probe of [NT] ID NO: 16) sequence was used to amplify PPAR-gamma mRNA, and a VIC probe of [NT] ID NO: 15) sequence was used to amplify GAPDH mRNA as an intra control. Real time quantitative PCR was performed using the Applied Biosystems 7500 Real-Time PCR system (Applied Biosystems, USA). Results obtained from various experiments are recorded as mean±standard error of mean (SEM), and significance verification is determined using the student's T-test analysis method. The data were analyzed using one-way ANOVA to determine a statistically significant variance between each group for each final point measured, and statistical significance between each group was determined using the nonparametric Mann-Whitney test and Dunnett's multiple comparison test (IBM SPSS statistics version 19.0 statistic software, Inc, IBM, USA).
# [8] = Table 6, mixture ratio 0:10, 25 μg/mL
# [9] = Mus musculus, 3T3-L1, read-out: Inhibition Rate (TG production)
structure (smiles),measurement,setting,value
"O=C(O)CC(O)(C(=O)O)C(O)C(=O)O (centres unmarked) [Ca-HCA, hydroxy citric acid]","Glucose absorption rate (%, relative to 100 nM insulin treatment as 100%)",L6 myotube cells [1]; 5 μg/mL,5%
same,"Glucose absorption rate (%, relative to 100 nM insulin treatment as 100%)",L6 myotube cells [1]; 30 μg/mL,50%
same,Cytotoxicity (conclusion from Tables 3 to 5),3T3-L1 cells [2],not cytotoxic
same,Cell Viability,3T3-L1 cells [2]; 12.5 μg/mL,113.20 ± 14.37%
same,Cell Viability,3T3-L1 cells [2]; 25 μg/mL,115.37 ± 8.86%
same,Cell Viability,3T3-L1 cells [2]; 50 μg/mL,86.24 ± 8.74%
same,Cell Viability,3T3-L1 cells [2]; 100 μg/mL,88.65 ± 11.58%
same,inhibition at 25 µg/mL,"3T3-L1 cells [3]; Mus musculus, 3T3-L1, Table 9, 25 μg/mL, read-out: Inhibition Rate (TG production)",6.62 ± 0.98%
same,inhibition at 50 µg/mL,"3T3-L1 cells [3]; Mus musculus, 3T3-L1, Table 9, 50 μg/mL, read-out: Inhibition Rate (TG production)",11.4 ± 0.88%
same,TG Production Rate (% relative to positive control),"3T3-L1 cells [3]; Table 9, 25 μg/mL",94.51 ± 0.81%
same,TG Production Rate (% relative to positive control),"3T3-L1 cells [3]; Table 9, 50 μg/mL",90.54 ± 0.73%
same,EC50,L6 myotube cells [4],27.6 µM
"C=C(C)[C@@H]1CC[C@]2(C(=O)O)CC[C@]3(C)[C@H](C[C@H]4OC(=O)C[C@@H](O)[C@]5(C)[C@@H]4[C@@]3(C)CC[C@H]5C(=C)C)[C@@H]12 [Chiisanogenin, chiisanogenin]","Creatin (mg/dL), mean ± standard error",[5],0.635 ± 0.007 mg/dL
same,"Glucose absorption rate (%, relative to 100 nM insulin treatment as 100%)",L6 myotube cells [1]; 5 μg/mL,1%
same,"Glucose absorption rate (%, relative to 100 nM insulin treatment as 100%)",L6 myotube cells [1]; 15 μg/mL,25%
same,Cytotoxicity (conclusion from Tables 3 to 5),3T3-L1 cells [2],not cytotoxic
same,Cell Viability,3T3-L1 cells [2]; 10 μg/mL,127.27 ± 18.60%
same,Cell Viability,3T3-L1 cells [2]; 12.5 μg/mL,106.41 ± 3.40%
same,Cell Viability,3T3-L1 cells [2]; 50 μg/mL,117.77 ± 9.59%
same,Cell Viability,3T3-L1 cells [2]; 100 μg/mL,104.31 ± 9.72%
same,inhibition at 10 µg/mL,"3T3-L1 cells [6]; Mus musculus, 3T3-L1, Table 7, 10 μg/mL, read-out: Inhibition Rate (fat accumulation)",11.3 ± 1.47%
same,Fat Accumulation Rate (% relative to positive control),3T3-L1 cells [6]; [8],87.21 ± 4.82 %
same,Inhibition Rate (fat accumulation),3T3-L1 cells [6]; [8],22.59 ± 7.34%
same,Fat Accumulation Rate (% relative to positive control),"3T3-L1 cells [6]; Table 7, 10 μg/mL",95.13 ± 5.90%
same,Inhibition Rate (OGTT),[7],38%
same,"OGTT (30 min-0 min, mg/dL)",[7]; glucose 1 g/kg,127.4 ± 13.03 mg/dL
same,inhibition at 10 µg/mL,3T3-L1 cells [3]; [9],11.4 ± 5.34%
same,inhibition at 25 µg/mL,3T3-L1 cells [3]; [9],6.47 ± 0.73%
same,inhibition at 50 µg/mL,3T3-L1 cells [3]; [9],22.8 ± 0.25%
same,TG Production Rate (% relative to positive control),"3T3-L1 cells [3]; Table 8, 10 μg/mL",90.84 ± 4.21%
same,TG Production Rate (% relative to positive control),"3T3-L1 cells [3]; Table 9, 25 μg/mL",94.63 ± 0.61%
same,TG Production Rate (% relative to positive control),"3T3-L1 cells [3]; Table 9, 50 μg/mL",81.07 ± 0.20%
same,EC50,L6 myotube cells [4],23.3 µM
same,PPAR-γ mRNA Inhibition Rate (%),PPAR-gamma mRNA,49%
same,"PPAR-γ mRNA, mean ± standard error",PPAR-gamma mRNA; real-time PCR vs GAPDH,2.134 ± 0.39
